We go through 1 molecule from patent publication US20250040542A1, “USE OF PHENYLPHENALENONES AS A SELECTIVE HERBICIDE” (UNIVERSITE DE LIMOGES, priority 2021, published 2025).

For one series, the system named is Poppy (Papaver rhoeas). Put plainly: Greenhouse foliar spraying on weed. The class given is in vivo. Further details: key to Resistance (degree of resistance of the weed to the treatments): least resistant +; most resistant ++++++++. The method, then:
(§1) A 5 mM stock solution was prepared in 50% v/v ethanol (96°). Next, the solution was further diluted in distilled water to obtain 10 μM for in vitro testing and 50 μM, 75 μM and 100 μM for greenhouse testing. 0.1% v/v of the surfactant IGEPAL-Co 630 was added to the solution in order to obtain a product ready for spraying on seedlings in the greenhouse.
(§2) The different seeds are grown in a greenhouse in commercial potting soil (Terreau Universel, Fertiligene). The seeds were sown in the greenhouse under controlled temperature and humidity conditions (the temperature varies between 15° C. and 30° C. depending on the season, and the relative humidity varies from 50 to 70%). 6 isolated treatments (approximately 10 sprays each) spaced 48 hours apart were carried out one week after germination.
(§3) After 7 weeks, the seedlings were harvested. The roots and aboveground parts were separated and the roots were washed with distilled water and dried on absorbent paper. These materials were then stored at −20° C.
(§4) The formulation in which the active ingredient is 50 μM Anigorufone was tested on a barley+poppy system and on tomato plants, with two treatments spaced 48 hours apart.
Tests in a greenhouse were carried out. All plants were exposed to 6 treatments with 3 increasing doses spaced 48 hours apart: C1 (50 μM or 13.6 mg/l), C2 (75 μM or 20.4 mg/l), C3 (100 μM or 27.2 mg/l). […]

Series [1] relates to Tomato Lycopersicon esculentum var Marmande. The experiment in a line: Greenhouse foliar spraying on plant of interest. The series is classed as in vivo. As for the experimental part:
as §1, §2, §3, §4
(§5) Tests in a greenhouse were carried out. All plants were exposed to 6 treatments with 3 increasing doses spaced 48 hours apart: C1 (50 μM or 13.6 mg/l), C2 (75 μM or 20.4 mg/l), C3 (100 μM or 27.2 mg/l). Harvesting was conducted 7 weeks after germination.

A further series deals with Corn (Zea mays). The experiment in a line: Greenhouse foliar spraying on plant of interest. The class given is in vivo. The note with it: 6 treatments spaced 48 hours apart, C1 50 μM, C2 75 μM, C3 100 μM, harvest 7 weeks after germination. The method, then: as §1, §2, §3, §5
The test system of another series is Onion (Allium cepa). The experiment in a line: Greenhouse foliar spraying on plant of interest. The series is classed as in vivo. Conditions: 6 treatments spaced 48 hours apart, C1 50 μM, C2 75 μM, C3 100 μM, harvest 7 weeks after germination. The method, then:
as §1, §2, §3, §5

The subject of series [2] is Spinach (Spinacia oleracea). Put plainly: Greenhouse foliar spraying on plant of interest. The class given is in vivo. The note with it: 6 treatments spaced 48 hours apart, C1 50 μM, C2 75 μM, C3 100 μM, harvest 7 weeks after germination. As for the experimental part: as §1, §2, §3, §5
In series [3] the test system is Sunflower (Helianthus annuus). The experiment in a line: Greenhouse foliar spraying on plant of interest. The series is classed as in vivo. The note with it: 6 treatments spaced 48 hours apart. The method, then: as §1, §2, §3, §5
Another series concerns Turnip (Brassica napa). Put plainly: Greenhouse foliar spraying on plant of interest. The series is classed as in vivo. Conditions: 6 treatments spaced 48 hours apart, C1 50 μM, C2 75 μM, C3 100 μM, harvest 7 weeks after germination. The method, then:
as §1, §2, §3, §5

A further series deals with Wheat (Triticum sativum). The experiment in a line: Greenhouse foliar spraying on plant of interest. The class given is in vivo. Conditions: 6 treatments spaced 48 hours apart, C1 50 μM, C2 75 μM, C3 100 μM, harvest 7 weeks after germination. The method, then: as §1, §2, §3, §5
For series [4], the system named is Dandelion (Taraxacum officinale). Put plainly: Greenhouse foliar spraying on weed. The class given is in vivo. Also on record: key: least resistant +; most resistant ++++++++. The note with it: 6 treatments spaced 48 hours apart, C1 50 μM, C2 75 μM, C3 100 μM, harvest 7 weeks after germination; ranking among 8 weeds. The method, then:
as §1, §2, §3, §5

Series [5] is described as follows: Photodegradation test, exposed to sunlight. The series is classed as physicochemical. The note with it: 100 μM in distilled water. As for the experimental part: A photodegradation test was conducted on 100 μM anigorufone exposed to sunlight. An anigorufone solution was prepared at the studied dose (100 μM) from a stock solution in 50 ml of distilled water in glass flasks. The flasks were placed outside and exposed to full sunlight. The experiment was carried out three times in June 2022 under light conditions corresponding to sunny/partially clear skies. 1 ml of the solution was run through UV-Vis spectrometry and photodegradation was tracked by the decrease in absorbance at 370 nm. […]

In the next series the test system is Fishing worms (maggots). Put plainly: Toxicity test on fishing worms (maggots). The series is classed as in vivo. As for the experimental part:
Fishing worms (maggots) were spray treated with 100 μM (27.2 mg/L) anigorufone. 30 fishing worms were cultured per petri dish and 10 sprays were performed per dish. The fishing worms were cultured under photoperiod conditions (16 h light/8 h dark); 8000 Lux; 22° C.). The experiment was conducted three times. […]

Structures are written as SMILES.

`O=C1C(O)=Cc2cccc3ccc(-c4ccccc4)c1c23` [Anigorufone, 2-hydroxy-9-phenylphenalenone]: the “herbicidal effect on poppy” value in the series with Poppy (Papaver rhoeas) (50 μM, two treatments spaced 48 hours apart, foliar spraying, 17-day-old seedlings, barley+poppy system) is “dead”. Also, the “Resistance (degree of resistance of the weed to the treatments)” value in the series on Poppy (Papaver rhoeas) (6 treatments spaced 48 hours apart, C1 50 μM, C2 75 μM, C3 100 μM, harvest 7 weeks after germination, ranking among 8 weeds) was “+”; in series [4], “++++++++”. Besides, in series [1] (50 μM, two treatments spaced 48 hours apart, foliar spraying), the “growth of tomatoes compared to the control lot” value is “does not affect their growth”. For the same molecule, in [1] (50 μM, two treatments, two months after treatment, compared to untreated plants), the “growth of tomato plants two months after treatment” value was “normal growth”. In [1] (6 treatments spaced 48 hours apart, C1 50 μM, C2 75 μM, C3 100 μM, harvest 7 weeks after germination), the effect on tomato result is listed as “no effect”. Also, the effect on corn result with Corn (Zea mays) is recorded as “no effect”. Besides, in the series on Onion (Allium cepa), the effect on onion entry is “no effect”. Moreover, the effect on spinach result in [2] is recorded as “no effect”. In [3] (C1 50 μM, C2 75 μM, C3 100 μM, harvest 7 weeks after germination), the effect on sunflower entry was “no effect”. Besides, the flowering of sunflowers entry in series [3] (treated with C1 (50 μM) and C2 (75 μM)) is on record as “flowering induction”. In addition, the effect on turnip entry in the series on Turnip (Brassica napa) is listed as “no effect”. Further, in the series with Wheat (Triticum sativum), the effect on wheat entry is “no effect”. Besides, the photodegradation entry in [5] (after 2 weeks) is “degraded almost completely”. Also, the persistent molecules in series [5] (after 72 hours, absorbance at 370 nm) is 30-40%. In the series with Fishing worms (maggots) (spray treated with 100 μM (27.2 mg/L), 10 sprays per dish, 30 worms per dish), the “viability rate of the maggots compared to the control conditions” value was “remains constant”. Besides, the “effects on fishing worms” value in the series on Fishing worms (maggots) (tested at 100 μM (27.2 mg/L), spray) is listed as “no effects”.
